Measurements published in paper PMC6509186, “Nontypeable Haemophilus influenzae Has Evolved Preferential Use of N-Acetylneuraminic Acid as a Host Adaptation” (mBio, 2019).
pKd: −log10 of the molar value. Where two headings read alike, the source gives them in different places.

Molecular target: T1, CMP-Neu5Ac synthetase (SiaB) (Haemophilus influenzae, UniProt Q57140)
T1 construct: gene neuA; full-length siaB in pET51-Ek/LIC, N-terminal 6xHis tag (so in the source) kept; expressed in E. coli, Talon purified; 24,800 Da; amine-coupled to CM5 chip
Assay: surface plasmon resonance, immobilised SiaB
Format: binding

[1] = 20 mM MgCl2, 0.2 M MOPS, pH 8.1, 37°C, enzyme amine-coupled to CM5 chip

Structure (SMILES) | pKd | pKd [1]
Nc1ccn([C@@H]2O[C@H](COP(=O)(O)OP(=O)(O)OP(=O)(O)O)[C@@H](O)[C@H]2O)c(=O)n1 [CTP] | < 3.70 | 
CC(=O)N[C@H]1[C@H]([C@H](O)[C@H](O)CO)OC(O)(C(=O)O)C[C@@H]1O (stereo partly drawn) [Neu5Ac] |  | 8.92
O=C(CO)N[C@H]1[C@H]([C@H](O)[C@H](O)CO)OC(O)(C(=O)O)C[C@@H]1O (stereo partly drawn) [Neu5Gc] |  | 6.00
